According to ChEMBL document CHEMBL1153306, “Relation between lipophilicity of alkyl gallates and antifungal activity against yeasts and filamentous fungi” (Bioorg Med Chem Lett, 2009):
≈ marks a conversion by molar mass, not a printed value.

What was measured:
Candida albicans = assay: Antifungal activity against Candida albicans after 48 hrs by broth microdilution technique; type: functional
Candida tropicalis = assay: Antifungal activity against Candida tropicalis after 48 hrs by broth microdilution technique; type: functional
Saccharomyces cerevisiae = assay: Antifungal activity against Saccharomyces cerevisiae after 48 hrs by broth microdilution technique; type: functional
Cryptococcus neoformans = assay: Antifungal activity against Cryptococcus neoformans after 48 hrs by broth microdilution technique; type: functional
Aspergillus fumigatus = assay: Antimicrobial activity against Aspergillus fumigatus after 48 hrs by broth microdilution technique; type: functional
Aspergillus flavus = assay: Antimicrobial activity against Aspergillus flavus after 48 hrs by broth microdilution technique; type: functional
Aspergillus niger = assay: Antimicrobial activity against Aspergillus niger after 48 hrs by broth microdilution technique; type: functional
Nannizzia gypsea = assay: Antimicrobial activity against Microsporum gypseum after 48 hrs by broth microdilution technique; type: functional
Trichophyton rubrum = assay: Antimicrobial activity against Trichophyton rubrum after 48 hrs by broth microdilution technique; type: functional
[1] = tested on: Trichophyton mentagrophytes; assay: Antimicrobial activity against Trichophyton mentagrophytes after 48 hrs by broth microdilution technique; type: functional
Epidermophyton floccosum = assay: Antimicrobial activity against Epidermophyton floccosum after 48 hrs by broth microdilution technique; type: functional
[2] = Lipophilicity, log P of the compound; type: physicochemical; settings: octanol/water

| Structure (SMILES) | MIC (Candida albicans) | MIC (Candida tropicalis) | MIC (Saccharomyces cerevisiae) | MIC (Cryptococcus neoformans) | MIC (Aspergillus fumigatus) | MIC (Aspergillus flavus) | MIC (Aspergillus niger) | MIC (Nannizzia gypsea) | MIC (Trichophyton rubrum) | MIC [1] | MIC (Epidermophyton floccosum) | logP [2] |
| --- | --- | --- | --- | --- | --- | --- | --- | --- | --- | --- | --- | --- |
| CCCCCCCCCCCCCCCCOC(=O)c1cc(O)c(O)c(O)c1 [HEXADECYL GALLATE] | > 250 µg/mL | > 250 µg/mL | > 250 µg/mL | > 250 µg/mL | > 250 µg/mL | > 250 µg/mL | > 250 µg/mL | 250 µg/mL (≈ 634 µM) | 250 µg/mL (≈ 634 µM) | 125 µg/mL (≈ 317 µM) | – | – |
| CN(C/C=C/C#CC(C)(C)C)Cc1cccc2ccccc12 [TERBINAFINE] | – | – | – | – | – | – | – | 0.04 µg/mL (≈ 0.137 µM) | 0.01 µg/mL (≈ 0.0343 µM) | 0.04 µg/mL (≈ 0.137 µM) | 0.004 µg/mL (≈ 0.0137 µM) | – |
| CC(=O)N1CCN(c2ccc(OCC3COC(Cn4ccnc4)(c4ccc(Cl)cc4Cl)O3)cc2)CC1 (configuration not stated) [KETOCONAZOLE] | 1.56 µg/mL (≈ 2.94 µM) | 0.125 µg/mL (≈ 0.235 µM) | 3.12 µg/mL (≈ 5.87 µM) | 0.39 µg/mL (≈ 0.734 µM) | 0.78 µg/mL (≈ 1.47 µM) | 0.78 µg/mL (≈ 1.47 µM) | 1.56 µg/mL (≈ 2.94 µM) | – | – | – | – | – |
| CCCCOC(=O)c1cc(O)c(O)c(O)c1 [BUTYL GALLATE] | > 250 µg/mL | > 250 µg/mL | > 250 µg/mL | > 250 µg/mL | > 250 µg/mL | > 250 µg/mL | > 250 µg/mL | 50 µg/mL (≈ 221 µM) | 50 µg/mL (≈ 221 µM) | 100 µg/mL (≈ 442 µM) | 100 µg/mL (≈ 442 µM) | – |
| CCCCCCCCCCCOC(=O)c1cc(O)c(O)c(O)c1 [UNDECYL GALLATE] | 250 µg/mL (≈ 771 µM) | 200 µg/mL (≈ 616 µM) | 200 µg/mL (≈ 616 µM) | 100 µg/mL (≈ 308 µM) | > 250 µg/mL | > 250 µg/mL | > 250 µg/mL | 125 µg/mL (≈ 385 µM) | 125 µg/mL (≈ 385 µM) | 100 µg/mL (≈ 308 µM) | – | – |
| CCCCCCCOC(=O)c1cc(O)c(O)c(O)c1 [HEPTYL GALLATE] | 100 µg/mL (≈ 373 µM) | 100 µg/mL (≈ 373 µM) | 100 µg/mL (≈ 373 µM) | 62.5 µg/mL (≈ 233 µM) | 100 µg/mL (≈ 373 µM) | 100 µg/mL (≈ 373 µM) | 100 µg/mL (≈ 373 µM) | 6.25 µg/mL (≈ 23.3 µM) | 6.25 µg/mL (≈ 23.3 µM) | 12.5 µg/mL (≈ 46.6 µM) | 6.25 µg/mL (≈ 23.3 µM) | – |
| CCCCCCCCOC(=O)c1cc(O)c(O)c(O)c1 [OCTYL_GALLATE] | 62.5 µg/mL (≈ 221 µM) | 62.5 µg/mL (≈ 221 µM) | 50 µg/mL (≈ 177 µM) | 50 µg/mL (≈ 177 µM) | 62.5 µg/mL (≈ 221 µM) | 62.5 µg/mL (≈ 221 µM) | 62.5 µg/mL (≈ 221 µM) | 6.25 µg/mL (≈ 22.1 µM) | 6.25 µg/mL (≈ 22.1 µM) | 12.5 µg/mL (≈ 44.3 µM) | 6.25 µg/mL (≈ 22.1 µM) | 3.7 |
| CCCOC(=O)c1cc(O)c(O)c(O)c1 [PROPYL GALLATE] | > 250 µg/mL | > 250 µg/mL | > 250 µg/mL | > 250 µg/mL | > 250 µg/mL | > 250 µg/mL | > 250 µg/mL | 75 µg/mL (≈ 353 µM) | 50 µg/mL (≈ 236 µM) | 100 µg/mL (≈ 471 µM) | 100 µg/mL (≈ 471 µM) | – |
| O=C(O)c1cc(O)c(O)c(O)c1 [GALLIC ACID] | > 250 µg/mL | > 250 µg/mL | > 250 µg/mL | > 250 µg/mL | > 250 µg/mL | > 250 µg/mL | > 250 µg/mL | > 250 µg/mL | 100 µg/mL (≈ 588 µM) | 125 µg/mL (≈ 735 µM) | 100 µg/mL (≈ 588 µM) | – |
| CCCCCCCCCCCCCCOC(=O)c1cc(O)c(O)c(O)c1 [TETRADECYL GALLATE] | > 250 µg/mL | > 250 µg/mL | > 250 µg/mL | 250 µg/mL (≈ 682 µM) | > 250 µg/mL | > 250 µg/mL | > 250 µg/mL | 100 µg/mL (≈ 273 µM) | 50 µg/mL (≈ 136 µM) | 50 µg/mL (≈ 136 µM) | > 250 µg/mL | – |
| CCOC(=O)c1cc(OC)c(OC)c(OC)c1 [ETHYLTRIMETHOXY BENZOATE] | > 250 µg/mL | > 250 µg/mL | > 250 µg/mL | > 250 µg/mL | > 250 µg/mL | > 250 µg/mL | > 250 µg/mL | > 250 µg/mL | > 250 µg/mL | > 250 µg/mL | > 250 µg/mL | – |
| CCOC(=O)c1cc(O)c(O)c(O)c1 [ETHYLGALLATE] | > 250 µg/mL | > 250 µg/mL | > 250 µg/mL | > 250 µg/mL | > 250 µg/mL | > 250 µg/mL | > 250 µg/mL | 100 µg/mL (≈ 505 µM) | 100 µg/mL (≈ 505 µM) | 100 µg/mL (≈ 505 µM) | 100 µg/mL (≈ 505 µM) | – |
| Oc1cccc(O)c1O [PYROGALLOL] | 100 µg/mL (≈ 793 µM) | 100 µg/mL (≈ 793 µM) | 100 µg/mL (≈ 793 µM) | 62.5 µg/mL (≈ 496 µM) | 100 µg/mL (≈ 793 µM) | > 250 µg/mL | > 250 µg/mL | 50 µg/mL (≈ 396 µM) | 25 µg/mL (≈ 198 µM) | 50 µg/mL (≈ 396 µM) | 12.5 µg/mL (≈ 99.1 µM) | – |
| CCCCCCCCCCOC(=O)c1cc(O)c(O)c(O)c1 [DECYL GALLATE] | 100 µg/mL (≈ 322 µM) | 100 µg/mL (≈ 322 µM) | 100 µg/mL (≈ 322 µM) | 50 µg/mL (≈ 161 µM) | 100 µg/mL (≈ 322 µM) | > 250 µg/mL | > 250 µg/mL | 50 µg/mL (≈ 161 µM) | 12.5 µg/mL (≈ 40.3 µM) | 50 µg/mL (≈ 161 µM) | 25 µg/mL (≈ 80.5 µM) | – |
| COc1cc(C(=O)O)cc(OC)c1OC [3,4,5-TRIMETHOXYBENZOIC ACID] | > 250 µg/mL | > 250 µg/mL | > 250 µg/mL | > 250 µg/mL | > 250 µg/mL | > 250 µg/mL | > 250 µg/mL | > 250 µg/mL | > 250 µg/mL | > 250 µg/mL | > 250 µg/mL | – |
| C[C@@H]1[C@H](O)[C@@H](C)/C=C/C=C/C=C/C=C/C=C/C=C/C=C/[C@H](O[C@@H]2O[C@H](C)[C@@H](O)[C@H](N)[C@@H]2O)C[C@@H]2O[C@](O)(C[C@@H](O)C[C@@H](O)[C@H](O)CC[C@@H](O)C[C@@H](O)CC(=O)O[C@H]1C)C[C@H](O)[C@H]2C(=O)O [AMPHOTERICIN B] | 0.78 µg/mL (≈ 0.844 µM) | 0.5 µg/mL (≈ 0.541 µM) | 0.5 µg/mL (≈ 0.541 µM) | 0.25 µg/mL (≈ 0.271 µM) | 0.5 µg/mL (≈ 0.541 µM) | 0.5 µg/mL (≈ 0.541 µM) | 0.5 µg/mL (≈ 0.541 µM) | – | – | – | – | – |
| CCCCCCCCCOC(=O)c1cc(O)c(O)c(O)c1 [NONYL GALLATE] | 8 µg/mL (≈ 27 µM) | 8 µg/mL (≈ 27 µM) | 8 µg/mL (≈ 27 µM) | 8 µg/mL (≈ 27 µM) | 62.5 µg/mL (≈ 211 µM) | 62.5 µg/mL (≈ 211 µM) | 125 µg/mL (≈ 422 µM) | 8 µg/mL (≈ 27 µM) | 8 µg/mL (≈ 27 µM) | 8 µg/mL (≈ 27 µM) | 25 µg/mL (≈ 84.4 µM) | 3.7 |
| CC(=O)Oc1cc(C(=O)O)cc(OC(C)=O)c1OC(C)=O [3,4,5-TRIACETOXYBENZOIC ACID] | > 250 µg/mL | > 250 µg/mL | > 250 µg/mL | > 250 µg/mL | > 250 µg/mL | > 250 µg/mL | > 250 µg/mL | > 250 µg/mL | > 250 µg/mL | > 250 µg/mL | > 250 µg/mL | – |
| CCCCCCCCCCCCOC(=O)c1cc(O)c(O)c(O)c1 [DODECYL GALLATE] | > 250 µg/mL | > 250 µg/mL | > 250 µg/mL | > 250 µg/mL | > 250 µg/mL | > 250 µg/mL | > 250 µg/mL | 100 µg/mL (≈ 295 µM) | 50 µg/mL (≈ 148 µM) | 50 µg/mL (≈ 148 µM) | – | – |
| COC(=O)c1cc(O)c(O)c(O)c1 [GALLIC ACID METHYL ESTER] | > 250 µg/mL | > 250 µg/mL | > 250 µg/mL | > 250 µg/mL | > 250 µg/mL | > 250 µg/mL | > 250 µg/mL | 100 µg/mL (≈ 543 µM) | 100 µg/mL (≈ 543 µM) | 100 µg/mL (≈ 543 µM) | 100 µg/mL (≈ 543 µM) | – |
| CCCCCCOC(=O)c1cc(O)c(O)c(O)c1 [HEXYL GALLATE] | > 250 µg/mL | > 250 µg/mL | > 250 µg/mL | > 250 µg/mL | > 250 µg/mL | > 250 µg/mL | > 250 µg/mL | 25 µg/mL (≈ 98.3 µM) | 25 µg/mL (≈ 98.3 µM) | 25 µg/mL (≈ 98.3 µM) | 25 µg/mL (≈ 98.3 µM) | – |
| CCCCCOC(=O)c1cc(O)c(O)c(O)c1 [PENTYL GALLATE] | > 250 µg/mL | > 250 µg/mL | > 250 µg/mL | > 250 µg/mL | > 250 µg/mL | > 250 µg/mL | > 250 µg/mL | 50 µg/mL (≈ 208 µM) | 50 µg/mL (≈ 208 µM) | 50 µg/mL (≈ 208 µM) | 100 µg/mL (≈ 416 µM) | – |
| CCCCCCCCCCCCCCCCCCOC(=O)c1cc(O)c(O)c(O)c1 [OCTADECYL GALLATE] | > 250 µg/mL | > 250 µg/mL | > 250 µg/mL | > 250 µg/mL | > 250 µg/mL | > 250 µg/mL | > 250 µg/mL | > 250 µg/mL | 250 µg/mL (≈ 592 µM) | > 250 µg/mL | 250 µg/mL (≈ 592 µM) | – |
